For test [1], the system named is smooth muscle of tracheal rings. The test can be described thus: spasmodic contraction of tracheal rings ex vivo (histamine-induced). The settings on record: mean±SEM. Also on record: species or system Dunkin-Hartley guinea pigs. The protocol:
The magnitude of the relaxing effect of the peptides was evaluated by means of a model of spasmodic contraction of tracheal rings ex vivo, largely employed to test new bronchodilating agents (see CULLUM, V. A., FARMER, J. B., JACK, D., LEVY, G. P. Salbutamol: a new, selective β-adrenoceptive receptor stimulant. British journal of pharmacology, 35(1): 141-151. 1969; KAO, C. H., CHU, Y. H., WANG, H. W. Effects of lidocaine on rat's isolated tracheal smooth muscle. European Archives of Oto-Rhino-Laryngology, 267(5): 817-820. 2010; SORIANO-URSÚA, M. A., VALENCIA-HERNÁNDEZ, I., ARELLANO-MENDOZA, M. G., CORREA-BASURTO, J., TRUJILLO-FERRARA, J. G. Synthesis, pharmacological and in silico evaluation of 1-(4-dihydroxy-3, 5-dioxa-4-borabycyclo [4.4.0] deca-7,9,11-trien-9-yl)-2-(tert-butylamine) ethanol, a compound designed to act as a β2 adrenoceptor agonist. European journal of medicinal chemistry, 44(7): 2840-2846. 2009).
For each test, Dunkin-Hartley guinea pigs (400-500 g) were euthanized in a CO2 atmosphere; subsequently, the trachea was exposed, removed and sectioned in segments of 1 to 3 cartilaginous tracheal rings. Each segment was transferred to an individual organ bath system containing Krebs nutritive solution (NaCl 118 mM; KCl […]; CaCl2) 2.5 mM; MgSO4 1.2 mM; KH2PO4 1.2 mM; NaHCO324 mM; glucose 11 mM) at 37° C., under constant aeration with a carbogenic mixture (95% of O2 and 5% of CO2). In each system, a stem fixed to the base of the container and another connected to an isometric transducer (GRASS FT-03) made up the support of the fragments. A data digitizing system connected to the isometric transducer allowed the recording of tension variations produced by the contraction of the tracheal rings (PowerLab™ 16/30, LabChart, version 8.1, AD Instruments, Australia). The basal tension was adjusted to 1 g, and subsequently, the contractility of the fragments was evaluated by a stimulus with carbachol (2.5 μM). After 1 h at rest, the basal tension was recovered and the tissues were subjected to contraction induced by histamine (50 μM) followed by exposure to increasing concentrations of the treatments (0.01 to 10 μM; n=8) or the comparator PnTx(19).
Table 1 lists the mean±SEM of the potency values, shown as the negative logarithm of the concentration that reduced the voltage to 50% of the maximum Histamine-induced contraction (pEC50), and efficacy (Emax), calculated from at least 8 independent tests using the sigmoid nonlinear regression equation of the software Graph Prism 5.0 (GraphPad Software, La Jolla, Ca, USA).

In test [2] the test system is cavernosal strips. As to the kind of experiment: relaxation induced by electric stimuli in cavernosal strips pre-contracted with phenylephrine ex vivo. The arrangement: species or system rats of Sprague Dawley (SD) lineage. The settings on record: peptides 10^−10 M; 10^−8 M; 10^−6 M; FIG. 3. The protocol:
The relaxing potential of the peptides of the present invention on the smooth muscles of cavernous strips was evaluated ex vivo using tissue isolated from rats, a model that is largely used to test drug candidates for the treatment of ED (ITALIANO, G., CALABRÒ, A., PAGANO, F. A simplified in vitro preparation of the corpus cavernosum as a tool for investigating erectile pharmacology in the rat. Pharmacological research, 30(4): 325-334. 1994; GEMALMAZ, H., WALDECK, K., CHAPMAN, T. N., TUTTLE, J. B., STEERS, W. D., ANDERSSON, K E. In vivo and in vitro investigation of the effects of sildenafil on rat cavernous smooth muscle. The Journal of Urology, 165(3): 1010-1014.2001).
Male rats of Sprague Dawley (SD) lineage were sacrificed by guillotine; the penises were removed surgically and placed on a Petri dish containing Krebs—bicarbonate solution (NaCl 118.1 mM; KCl 4.7 mM; KH2PO4 1.0 mM; MgSO4 1.0 mM; NaHCO3 25.0 mM; CaCl2) 2.5 mM and Glucose 11.1 mM). The corpus cavernosum were dissected by removing the glans, urethra, spongeous body and dorsal vein, and then separated by cutting the fibrous septum between them. Cavernosal strips measuring 2×2×7 mm were mounted separately in a bath for isolated organs containing bicarbonate solution-Krebs (pH 7.4) at 37° C., aerated with 95% of O02 and 5% of CO2. The tissue was connected to a tension transducer and the changes in tension were continuously registered. The cavernosal strips were contracted with phenylephrine (10^−5 M) and subsequently relaxed by electrical stimulation at different frequencies (1 to 32 Hz). […] Differences in the percentage of relaxation between treatment and control were evaluated with regard to statistical significance by means of two-way variance analysis (Two-Way ANOVA) followed by Bonferroni post-test. For the comparison between the treatments and control in light of the stimulation in a single frequency, the results were evaluated by one-way analysis variance (One-Way ANOVA) followed by Bonferroni post-test. […]

Regarding “RQYFWIAWYKLANSK [SEQ ID NO: 5, Ac-Arg-Gln-Tyr-Phe-Trp-Ile-Ala-Trp-Tyr-Lys-Leu-Ala-Asn-Ser-Lys-NH2]”, in test [1] (relaxation of tracheal rings contracted by histamine (50 μM)), the “Effectiveness (Emax) (%)” value is “Inactive”. In addition, the “Potency (pEC50) Molar” value in test [1] (tracheal rings contracted by histamine (50 μM), peptides 0.01 to 10 μM) is given as “Inactive”. For the same sequence, the “enhancing effect on relaxation induced by electric stimuli in strips of cavernous body contracted by phenylephrine” value in test [2] is recorded as “enhancing effect”.

(Values after US10905738B2, “Synthetic peptides, prodrugs, pharmaceutical compositions and uses” (Biozeus Desenvolvimento De Produtos Biofarmacêuticos, priority 2018, dated 2021).)
